Measurements: BigSolDB 2.1

Compound `COc1cnc(Cl)nc1Cl` has a solubility (mole fraction) (in acetone, 297.35 K) of 0.348, a solubility (mole fraction) (in acetone, 299.36 K) of 0.368 and a solubility (mole fraction) (in acetone, 301.17 K) of 0.386. It also gave a solubility (mole fraction) (in acetone, 303.13 K) of 0.403, a solubility (mole fraction) (in acetone, 304.54 K) of 0.42 and a solubility (mole fraction) (in acetone, 306.18 K) of 0.436. For the same compound, the solubility (mole fraction) (in acetone, 307.53 K) was 0.45, the solubility (mole fraction) (in acetone, 308.97 K) was 0.466 and the solubility (mole fraction) (in acetone, 310.25 K) was 0.481. It also gave a solubility (mole fraction) (in acetone, 311.37 K) of 0.492, a solubility (mole fraction) (in ethanol, 299.44 K) of 0.0474 and a solubility (mole fraction) (in ethanol, 301.27 K) of 0.0527. It also gave a solubility (mole fraction) (in ethanol, 303.17 K) of 0.0584, a solubility (mole fraction) (in ethanol, 305.17 K) of 0.0655 and a solubility (mole fraction) (in ethanol, 307.06 K) of 0.0745. For the same compound, the solubility (mole fraction) (in ethanol, 309.05 K) was 0.0855, the solubility (mole fraction) (in ethanol, 310.73 K) was 0.0972 and the solubility (mole fraction) (in ethanol, 312.58 K) was 0.11. It also gave a solubility (mole fraction) (in ethanol, 314 K) of 0.125, a solubility (mole fraction) (in ethanol, 315.47 K) of 0.141 and a solubility (mole fraction) (in ethanol, 316.61 K) of 0.158. The solubility (mole fraction) (in ethyl acetate, 295.6 K) was 0.288, the solubility (mole fraction) (in ethyl acetate, 296.53 K) was 0.295 and the solubility (mole fraction) (in ethyl acetate, 298.25 K) was 0.311. The solubility (mole fraction) (in ethyl acetate, 300.66 K) was 0.33, the solubility (mole fraction) (in ethyl acetate, 302.28 K) was 0.347 and the solubility (mole fraction) (in ethyl acetate, 304.15 K) was 0.364. It also gave a solubility (mole fraction) (in ethyl acetate, 305.62 K) of 0.382, a solubility (mole fraction) (in ethyl acetate, 307.47 K) of 0.401 and a solubility (mole fraction) (in ethyl acetate, 309.19 K) of 0.422. It also gave a solubility (mole fraction) (in ethyl acetate, 311.16 K) of 0.444, a solubility (mole fraction) (in ethyl acetate, 313.07 K) of 0.468 and a solubility (mole fraction) (in ethyl acetate, 314.57 K) of 0.49. The solubility (mole fraction) (in ethyl acetate, 316.39 K) was 0.513, the solubility (mole fraction) (in methanol, 302.37 K) was 0.0598 and the solubility (mole fraction) (in methanol, 303.78 K) was 0.0659. The solubility (mole fraction) (in methanol, 305.44 K) was 0.0734, the solubility (mole fraction) (in methanol, 306.57 K) was 0.0803 and the solubility (mole fraction) (in methanol, 308.12 K) was 0.0893. It also gave a solubility (mole fraction) (in methanol, 309.67 K) of 0.102, a solubility (mole fraction) (in methanol, 311.15 K) of 0.114 and a solubility (mole fraction) (in methanol, 312.43 K) of 0.13. For the same compound, the solubility (mole fraction) (in methanol, 313.55 K) was 0.146, the solubility (mole fraction) (in methanol, 314.81 K) was 0.163 and the solubility (mole fraction) (in methanol, 315.8 K) was 0.181. It also gave a solubility (mole fraction) (in methanol, 316.95 K) of 0.202, a solubility (mole fraction) (in n-heptane, 298.1 K) of 0.0094 and a solubility (mole fraction) (in n-heptane, 299.83 K) of 0.0104. The solubility (mole fraction) (in n-heptane, 302.1 K) was 0.0116, the solubility (mole fraction) (in n-heptane, 303.81 K) was 0.0129 and the solubility (mole fraction) (in n-heptane, 305.72 K) was 0.0141. The solubility (mole fraction) (in n-heptane, 307.55 K) was 0.0157, the solubility (mole fraction) (in n-heptane, 309.57 K) was 0.0174 and the solubility (mole fraction) (in n-heptane, 310.97 K) was 0.0192. It also gave a solubility (mole fraction) (in n-heptane, 312.89 K) of 0.0214, a solubility (mole fraction) (in n-heptane, 315.04 K) of 0.0239 and a solubility (mole fraction) (in n-heptane, 317.15 K) of 0.0268. It also gave a solubility (mole fraction) (in n-heptane, 318.83 K) of 0.0296, a solubility (mole fraction) (in n-heptane, 320.08 K) of 0.0324 and a solubility (mole fraction) (in tetrachloromethane, 298.6 K) of 0.123. For the same compound, the solubility (mole fraction) (in tetrachloromethane, 299.42 K) was 0.13, the solubility (mole fraction) (in tetrachloromethane, 300.63 K) was 0.143 and the solubility (mole fraction) (in tetrachloromethane, 301.97 K) was 0.159. For the same compound, the solubility (mole fraction) (in tetrachloromethane, 303.35 K) was 0.178, the solubility (mole fraction) (in tetrachloromethane, 304.82 K) was 0.196 and the solubility (mole fraction) (in tetrachloromethane, 305.8 K) was 0.214. It also gave a solubility (mole fraction) (in tetrachloromethane, 306.87 K) of 0.237, a solubility (mole fraction) (in tetrachloromethane, 308.2 K) of 0.261 and a solubility (mole fraction) (in tetrachloromethane, 309.57 K) of 0.288. It also gave a solubility (mole fraction) (in tetrachloromethane, 310.9 K) of 0.315 and a solubility (mole fraction) (in tetrachloromethane, 312.15 K) of 0.343.
